Assay results from publication PMC9241686 (Microbiology Spectrum, 2022).
Like-named read-outs stand apart in the source and are kept apart here.

Key:
[1] = system: macrophages (RAW 264.7); set-up: method as in PMID 35046812; conditions: RAW 264.7 infected macrophages, high-content assay; primary screen hits; read-out: Macrophage IC50; cited from earlier work
[2] = system: HepG2 cells; set-up: method as in PMID 35046812; conditions: standard culture medium; primary screen hits; cited from earlier work
[3] = system: intracellular M. tuberculosis; set-up: method as in PMID 35046812; conditions: M. tuberculosis in RAW 264.7, high-content assay; primary screen hits; read-out: Intracellular TB IC50; cited from earlier work
[4] = system: extracellular M. tuberculosis; set-up: method as in PMID 35046812; conditions: standard culture medium; primary screen hits; read-out: Extracellular TB IC50; cited from earlier work
[5] = system: HepG2 cells; test: cells; assay type: cell-based, human; conditions: 72 h, CellTiter-Glo; for IC50: Homo sapiens, HepG2
[6] = system: intracellular M. tuberculosis; test: microbe, parasite or virus in culture; assay type: cell-based, Mycobacterium tuberculosis; conditions: for IC50 / Intracellular TB IC50: M. tuberculosis in RAW 264.7, high-content assay, 72 h; for IC50: read-out: Intracellular TB IC50; for selectivity index (SI): cytotoxicity IC50 over intracellular M. tuberculosis IC50; for fold difference between extracellular and intracellular IC50: extracellular versus intracellular M. tuberculosis
[7] = system: extracellular M. tuberculosis; test: microbe, parasite or virus in culture; assay type: cell-based; conditions: Mycobacterium tuberculosis
[8] = system: macrophages (RAW 264.7); test: cells; assay type: cell-based, murine; conditions: RAW 264.7 infected macrophages, high-content assay, 72 h; for IC50: Mus musculus, RAW264.7, read-out: Macrophage IC50
[9] = system: replicating M. tuberculosis; test: Kill kinetics against replicating M. tuberculosis; assay type: cell-based, Mycobacterium tuberculosis; conditions: up to 100 μM, over 21 days, aerobic culture in 7H9-Tw-OADC
[10] = system: extracellular M. tuberculosis; test: microbe, parasite or virus in culture; assay type: cell-based, Mycobacterium tuberculosis; conditions: for IC50: Mycobacterium tuberculosis, 168 h, read-out: Cholesterol IC50; for Fold-change: glucose IC50 versus cholesterol IC50
[11] = Mycobacterium tuberculosis, RAW264.7, 72 h
[12] = 120 h, read-out: Extracellular TB IC50
[13] = glucose as carbon source, read-out: Glucose IC50

| SMILES | IC50 [5] [µM] | IC50 [6, 11] [µM] | IC50 [7, 12] [µM] | IC50 [8] [µM] | other results |
| --- | --- | --- | --- | --- | --- |
| CCOc1ccc(NC(=S)Nc2ccccc2)cc1 [Compound 1] | – | – | – | – | IC50 [1]: > 100 µM; IC50 [2]: > 100 µM; IC50 [3]: 0.4 µM; IC50 [4]: > 20 µM |
| CCOc1ccc(NC(=S)Nc2ccc(C)c(C#N)c2)cc1 [Compound 2] | – | – | – | – | IC50 [1]: 47 µM; IC50 [2]: 64 µM; IC50 [3]: 0.3 µM; IC50 [4]: 9.5 µM |
| O=C(Nc1ccc(Cl)cc1)Nc1ccc(Nc2ccccc2)cc1 [Compound 3] | – | – | – | – | IC50 [1]: 68 µM; IC50 [2]: > 100 µM; IC50 [4]: > 20 µM |
| O=C(Nc1ccc(C(F)(F)F)cc1)Nc1cccc(Cl)c1 [Compound 4] | – | – | – | – | IC50 [1]: 1.8 µM; IC50 [2]: 5.6 µM; IC50 [3]: 0.7 µM; IC50 [4]: 15 µM |
| Cc1cc(C)nc(NC(=N)Nc2ccc(Br)cc2)n1 [Compound 5] | – | – | – | – | IC50 [1]: 18 µM; IC50 [2]: 22 µM; IC50 [3]: 1.3 µM; IC50 [4]: 8.2 µM |
| Fc1cccc(NC(=S)Nc2ccccc2C(F)(F)F)c1 [Compound 7] | 86 | > 100 | > 200 | 53 | – |
| CCOc1ccc(NC(=S)NC)cc1 [Compound 8] | > 100 | < 20 | 80 | > 100 | IC50 [6]: 10 µM |
| S=C(Nc1ccccc1)NC1CCCCC1 [Compound 9] | > 100 | > 100 | 130 | > 100 | Intracellular TB IC50 [6]: loss of intracellular activity |
| CNC(=S)Nc1ccccc1 [Compound 10] | > 100 | > 100 | > 200 | > 100 | – |
| CCOc1ccc(NC(=S)Nc2ccccc2C(=O)OC)cc1 [Compound 11] | > 100 | – | > 200 | 46 | – |
| COc1ccc(NC(=S)Nc2ccccc2C)cc1 [Compound 12] | > 100 | < 20 | > 200 | > 100 | IC50 [6]: 19 µM |
| COc1ccc(NC(=S)Nc2ccc(C(N)=O)cc2)cc1 [Compound 13] | > 100 | > 100 | > 200 | > 100 | Intracellular TB IC50 [6]: inactive |
| CCOc1ccc(NC(=S)Nc2ccc(OC)cc2)cc1 [Compound 14] | > 100 | – | 7.2 | > 100 | culture viability (CFU) in kill kinetics [9]: small decrease in viable bacteria at day 21 at the highest concentration; IC50 [10]: 15 µM; Fold-change [10]: 0.5; selectivity index (SI) [6]: > 588; fold difference between extracellular and intracellular IC50 [6]: > 40 fold; IC50 [7, 13]: 7.2 µM |
| COc1ccc(NC(=S)Nc2ccccc2Cl)cc1 [Compound 15] | > 100 | < 20 | > 200 | > 100 | IC50 [6]: 14 µM |
| CCOc1ccc2nc(NC(=S)Nc3ccccc3)sc2c1 [Compound 16] | 73 | < 1 | 26 | 28 | IC50 [10]: 6.6 µM; Fold-change [10]: 3.9; IC50 [6]: 0.75 µM; IC50 [7, 13]: 26 µM |
| S=C(Nc1ccccc1)Nc1ccc(Cl)cc1 [Compound 17] | 91 | < 20 | 104 | 42 | IC50 [6]: 16 µM |
| COc1ccc(NC(=S)Nc2ccccc2C(F)(F)F)cc1OC [Compound 18] | > 100 | > 100 | > 200 | > 100 | Intracellular TB IC50 [6]: inactive |
| COc1ccc(NC(=S)Nc2ccc(F)cc2)cc1 [Compound 20] | > 100 | 9.2 | 91 | > 100 | – |
| CCCc1nnc(NC(=S)Nc2ccccc2)s1 [Compound 21] | > 100 | – | 14.5 | – | selectivity index (SI) [6]: > 200 |

| SMILES | IC50 [5] [µM] | IC50 [6, 11] [µM] | IC50 [7, 12] [µM] | IC50 [8] [µM] | other results |
| --- | --- | --- | --- | --- | --- |
| CC(C)(C)c1nnc(NC(=S)Nc2ccccc2)s1 [Compound 22] | > 99 | < 1 | 11 | > 100 | IC50 [10]: 5.7 µM; Fold-change [10]: 1.9; IC50 [6]: 0.51 µM; selectivity index (SI) [6]: > 200; fold difference between extracellular and intracellular IC50 [6]: > 20 fold; IC50 [7, 13]: 11 µM |
| FC(F)(F)c1cccc(NC(=S)Nc2cccnc2)c1 [Compound 23] | 62 | – | 125 | 30 | Macrophage IC50 [8]: cytotoxicity to macrophages |
| COc1ccc(NC(=S)Nc2ccc(Br)cc2)cc1 [Compound 24] | > 100 | 2.1 | 16 | 72 | fold increase in potency ([6]; intracellular IC50, bromine replacing fluorine): 5 fold |
| COc1cccc(NC(=S)Nc2cccc(C(F)(F)F)c2)c1 [Compound 25] | 24 | 9.6 | 63 | 17 | – |
| FC(F)(F)c1cccc(NC(=S)NCCc2ccc(Cl)cc2)c1 [Compound 26] | 23 | – | 30 | 9.3 | – |
| O=C(NC(=S)Nc1ccc2oc(-c3ccccc3)nc2c1)c1ccccc1 [Compound 27] | > 100 | – | > 200 | 80 | selectivity index (SI) [6]: > 200; fold difference between extracellular and intracellular IC50 [6]: > 500 fold |
| COc1ccc(C(F)(F)F)cc1NC(=O)Nc1cccc(Cl)c1 [Compound 28] | 12 | – | 25 | 3 | – |
| COc1ccc2nc(NC(=O)Nc3ccc(Cl)cc3)sc2c1 [Compound 29] | > 100 | – | > 200 | 56 | – |
| COc1ccc(NC(=O)Nc2nc3ccccc3s2)cc1 [Compound 30] | 54 | – | > 200 | 52 | – |
| CNC(=O)Nc1ccc(Br)cc1 [Compound 31] | > 100 | 64 | > 200 | > 100 | – |
| O=C(Nc1ccccc1)Nc1ccc(Cl)cc1 [Compound 33] | > 100 | > 100 | > 200 | > 100 | – |
| CC(C)(C)c1nnc(NC(=O)Nc2ccc(Cl)cc2)s1 [Compound 34] | > 100 | 84 | > 200 | > 100 | Intracellular TB IC50 [6]: lost activity |
| O=C(Nc1cccc(Cl)c1)NC1CCCCC1 [Compound 35] | > 100 | 4.5 | 28 | > 100 | HepG2 IC50 [5]: no cytotoxicity |
| Cc1nnc(NC(=O)Nc2ccccc2)s1 [Compound 36] | > 100 | > 100 | > 200 | > 100 | – |
| COc1cc(NC(=S)Nc2ccc(C(F)(F)F)cc2)cc(OC)c1 [Compound 37] | 49 | – | > 200 | 29 | – |
| CC(C)c1ccc(NC(=O)Nc2ccccc2)cc1 [Compound 38] | 55 | > 100 | > 200 | 85 | – |
| N#Cc1ccc(NC(=O)Nc2ccc(Cl)cc2)cc1 [Compound 39] | 6.5 | – | 11 | 3 | – |
| COc1cccc(NC(=O)Nc2ccc(C(F)(F)F)cc2)c1 [Compound 40] | 11 | – | 31 | 5.2 | – |
